Measurements: BigSolDB 2.1

NNC(=O)c1ccccc1O
solubility (mole fraction)
Details | 283.15 K | 288.15 K | 293.15 K | 298.15 K | 303.15 K | 308.15 K | 313.15 K | 318.15 K | 323.15 K
in ethanol | 0.0095 | 0.0115 | 0.0132 | 0.0161 | 0.0189 | 0.0224 | 0.0278 | 0.0316 | 0.0379
in isopropanol | 0.00719 | 0.00841 | 0.0102 | 0.0124 | 0.015 | 0.0181 | 0.0219 | 0.0261 | 0.0316
in methanol | 0.0122 | 0.015 | 0.017 | 0.0198 | 0.0243 | 0.0278 | 0.0326 | 0.0382 | 0.0462
in n-butanol | 0.00861 | 0.00985 | 0.0115 | 0.013 | 0.0148 | 0.0165 | 0.0188 | 0.0216 | 0.025
in n-propanol | 0.00748 | 0.0097 | 0.0112 | 0.0138 | 0.016 | 0.0189 | 0.024 | 0.0283 | 0.0334
in water | 0.0122 | 0.0146 | 0.0182 | 0.0223 | 0.028 | 0.0355 | 0.0435 | 0.0541 | 0.0665

NNC(=O)c1ccccc1
solubility (mole fraction)
Details | 283.15 K | 288.15 K | 293.15 K | 298.15 K | 303.15 K | 308.15 K | 313.15 K | 318.15 K | 323.15 K
in ethanol | 0.0137 | 0.0169 | 0.0203 | 0.0283 | 0.0376 | 0.0481 | 0.0605 | 0.0805 | 0.101
in isopropanol | 0.0112 | 0.0135 | 0.0173 | 0.0231 | 0.0299 | 0.0384 | 0.0489 | 0.0623 | 0.0761
in methanol | 0.0363 | 0.0425 | 0.0515 | 0.0605 | 0.0727 | 0.0843 | 0.103 | 0.118 | 0.137
in n-butanol | 0.0087 | 0.0107 | 0.0132 | 0.0185 | 0.0244 | 0.0321 | 0.041 | 0.0519 | 0.0665
in n-propanol | 0.0129 | 0.0155 | 0.019 | 0.026 | 0.0319 | 0.0421 | 0.0536 | 0.068 | 0.0834
in water | 0.00505 | 0.00662 | 0.00868 | 0.0116 | 0.0154 | 0.0203 | 0.0267 | 0.0348 | 0.0453
